Where two headings read alike, the source gives them in different places.

The format of data set [1] is physicochemical. The procedure:
A, B, and C contain 7.5 mg/mL glycine, equal to 100 mM glycine. D and E have 11.25 mg/mL glycine, equal to 150 mM glycine. F is the control without glycine.

A short description of data set [2]: Glycine concentration and temperature studies: chemical stability (residual potency and impurity levels). The format is physicochemical. As for the experimental part:
A, B, and C contain 7.5 mg/mL glycine, equal to 100 mM glycine. […] F is the control without glycine.

Data set [3] can be described thus: Preliminary buffer evaluation (phosphate vs glycine-NaOH). The format is physicochemical. The procedure: It is desirable that the pH of solutions of compound 1 and other compounds of the invention in 5% dextrose or normal saline remain in a range near about pH 10 to provide for an acceptable use period in a clinical setting. Phosphate and glycine buffer systems were tested.
Based on this propensity to precipitate, phosphate was disqualified as a buffer for the compounds of the invention.

Data set [4] in a line: Discoloration on reconstitution in aqueous solutions for intravenous administration. Format: physicochemical. The following applies: e.g. 5% dextrose or 0.9% saline. From the text: It has been found by the present inventors that anti-ulcerative compounds such as compound 1 and the compounds described by general formula I below discolor when they are reconstituted, i.e., dissolved, in aqueous solutions, particularly in solutions suitable for intravenous administration, e.g., 5% dextrose or 0.9% saline. Such solutions quickly turn yellow to yellow-brown.

Data set [5] is described as follows: Reduced glycine concentration experiments: color change in 0.9% saline pH 10. Format: physicochemical. The procedure: Absorption measurements were taken at the zero time point, and at 2, 4, 6, and 8 hours after dissolution. […] The glycine concentration-dependence of compound 1 discoloration was evaluated at […] after dissolution.
Data set [6] is described as follows: Effect of storage conditions (light, temperature) on absorbance 400-650 nm. The conditions noted are these: 2 mg/mL, 0.9% saline. Format: physicochemical. As for the experimental part: The effect of exposure to light and temperature was evaluated as a function of time for 0.9% saline solutions containing 2 mg/mL compound 1, with or without 10 mM glycine-NaOH buffer, was evaluated by monitoring absorbance at 400, 450, 500, 600, and 650 nm.

The nature of data set [7]: pH studies: chemical (HPLC) and physical (color) stability in water for injection. The following applies: for Chemical and physical stability: 24 hours.

With `COCCCOc1ccnc(C[S+]([O-])c2nc3ccccc3[nH]2)c1C` (centres unmarked) [compound 1], the Color formation entry is reported as “significantly retarded” in data set [1] (5° C. compared to room temperature) and “color formation was not inhibited” in data set [3] (50 mM phosphate buffer, compared with unbuffered solutions). Besides, the Discoloration entry is given as “discolored very quickly” in data set [1] (solutions devoid of glycine, regardless of temperature); “discolored more slowly” in data set [1] (solutions with greater glycine concentrations); “substantially slower” in data set [3] (100 mM glycine/NaOH, pH above 10). The “Difference in chemical stability between glycine formulations” value in data set [2] (0 mM, 100 mM and 150 mM glycine) was “No substantial difference”. For the same compound, the “Increase in impurity levels” value in data set [2] (5° C., pH 10.5 to 11, 24 hours) was “without measurable increases”. Moreover, the Impurities measured in data set [2] (room temperature, pH 10.5, 24 hours) was greater than 1%. In data set [2] (room temperature, pH 11 solution, 24 hours), the Increase in impurities is on record as less than 0.5%. In addition, the Appearance on reconstitution entry in data set [3] (phosphate-containing plugs) was “hazy solutions”. In addition, the Appearance after freeze-drying entry in data set [3] (solutions in phosphate and glycine buffers) was “white, well-formed plugs”. Besides, in data set [4], the “Color on reconstitution in aqueous solutions” value is reported as “discolor”. For the same compound, the “Rate of discoloration (absorption)” value in data set [5] (4 mg/mL, 0.9% saline pH 10, 25° C. dark, 0-8 hours, glycine-free vs 50 mM glycine) is reported as “much greater rate”. The “Difference in absorbance spectrum between glycine concentrations” value in data set [5] (4 mg/mL, 0.9% saline pH 10, 5, 10, 25, 50 mM glycine-NaOH, 5 hours) is “little difference”. Further, the Absorbance result in data set [5] (5 mM glycine-NaOH solution, 5 hours post-dissolution) is given as “noticeably higher absorbance”. Further, in data set [6] (10 mM glycine-NaOH, all wavelengths, temperatures, lighting conditions), the “Effect of glycine-NaOH buffer on absorption” value is recorded as “decreases absorption”. Further, the “Effect of exposure to light on color development” value in data set [6] (with or without 10 mM glycine-NaOH) was “no detrimental effect”. In data set [6] (without glycine-NaOH buffer), the “Color development with increasing storage temperature” value is listed as “increase in undesirable color development”. In addition, the “Order of chemical and physical stability by pH” value in data set [7] (5° C. and room temperature, 8 mg/mL in WFI) is listed as “pH 11.5>pH 11>pH 10.5>pH 10>pH 9.5”. The “Time until solutions began to assume a yellow color” value in data set [7] (pH 9.5, 8 mg/mL in WFI) is no more than 30 min. In addition, the “Chemical and physical stability” value in data set [7] (pH 10.5, cold temperatures (5° C.)) was “adequate”; in data set [7] (pH 10.5, room temperature) it was “marginally stable”. In data set [7] (pH 11 or greater, cold temperatures), the “Stability for manufacture and handling in preparation for freeze drying” value is reported as “adequately stable”.
